In PubChem BioAssay (NCI):
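GI50 is the concentration that inhibits growth by half. TGI: concentration producing complete growth inhibition.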

Columns and labels:
Test in all cases: NCI-60 cell line screen, 384-well format
CAKI-1 renal = system: CAKI-1 renal
KM12 colon = system: KM12 colon
SW-620 colon = system: SW-620 colon
UACC-257 melanoma = system: UACC-257 melanoma
HOP-92 NSCLC = system: HOP-92 NSCLC
HCC-2998 colon = system: HCC-2998 colon
EKVX NSCLC = system: EKVX NSCLC
DU-145 prostate = system: DU-145 prostate
TK-10 renal = system: TK-10 renal
OVCAR-5 ovarian = system: OVCAR-5 ovarian
NCI-H23 lung = system: NCI-H23 lung
NCI-H226 lung = system: NCI-H226 lung
A549 NSCLC = system: A549 NSCLC
UACC-62 melanoma = system: UACC-62 melanoma
MOLT-4 leukemia = system: MOLT-4 leukemia
MALME-3M melanoma = system: MALME-3M melanoma
SK-OV-3 ovarian = system: SK-OV-3 ovarian
HT29 colon = system: HT29 colon
SK-MEL-2 melanoma = system: SK-MEL-2 melanoma
LOX IMVI melanoma = system: LOX IMVI melanoma
MCF7 breast = system: MCF7 breast
ACHN renal = system: ACHN renal
OVCAR-4 ovarian = system: OVCAR-4 ovarian
NCI-H322M lung = system: NCI-H322M lung
A498 renal = system: A498 renal
786-0 renal = system: 786-0 renal
MDA-MB-468 breast = system: MDA-MB-468 breast
OVCAR-8 ovarian = system: OVCAR-8 ovarian
SF-268 CNS = system: SF-268 CNS
COLO 205 colon = system: COLO 205 colon
UO-31 renal = system: UO-31 renal
NCI-H460 NSCLC = system: NCI-H460 NSCLC
IGROV1 ovarian = system: IGROV1 ovarian
SNB-75 CNS = system: SNB-75 CNS
PC-3 prostate = system: PC-3 prostate
HS 578T breast = system: HS 578T breast
HL-60(TB) leukemia = system: HL-60(TB) leukemia
K-562 leukemia = system: K-562 leukemia
NCI/ADR-RES ovarian = system: NCI/ADR-RES ovarian
NCI-H522 lung = system: NCI-H522 lung
CCRF-CEM leukemia = system: CCRF-CEM leukemia
HOP-62 NSCLC = system: HOP-62 NSCLC
SR leukemia = system: SR leukemia
SNB-19 CNS = system: SNB-19 CNS
T-47D breast = system: T-47D breast
MDA-MB-435 melanoma = system: MDA-MB-435 melanoma
HCT-116 colon = system: HCT-116 colon

Question: Which results are given for `COCCOc1cc(F)c2c(Nc3ccc(NC(=O)Cn4cc(C(C)C)nn4)cc3)ncnc2c1`?
Answer: GI50 (CAKI-1 renal): 38.4 µM; TGI (CAKI-1 renal): > 100 µM; GI50 (KM12 colon): 0.56 µM; TGI (KM12 colon): > 100 µM; GI50 (SW-620 colon): 52 µM; TGI (SW-620 colon): > 100 µM; GI50 (UACC-257 melanoma): 60.6 µM; TGI (UACC-257 melanoma): > 100 µM; GI50 (HOP-92 NSCLC): 30.7 µM; TGI (HOP-92 NSCLC): > 100 µM; GI50 (HCC-2998 colon): 29.3 µM; TGI (HCC-2998 colon): > 100 µM; GI50 (EKVX NSCLC): 41 µM; TGI (EKVX NSCLC): > 100 µM; GI50 (DU-145 prostate): 75 µM; TGI (DU-145 prostate): > 100 µM; GI50 (TK-10 renal): 29.8 µM; TGI (TK-10 renal): > 100 µM; GI50 (OVCAR-5 ovarian): 87.8 µM; TGI (OVCAR-5 ovarian): > 100 µM; GI50 (NCI-H23 lung): 35.6 µM; TGI (NCI-H23 lung): > 100 µM; GI50 (NCI-H226 lung): 7.16 µM; TGI (NCI-H226 lung): > 100 µM; GI50 (A549 NSCLC): 53.2 µM; TGI (A549 NSCLC): > 100 µM; GI50 (UACC-62 melanoma): 31.1 µM; TGI (UACC-62 melanoma): > 100 µM; GI50 (MOLT-4 leukemia): 3.68 µM; TGI (MOLT-4 leukemia): 18.7 µM; GI50 (MALME-3M melanoma): 25 µM; TGI (MALME-3M melanoma): > 100 µM; GI50 (SK-OV-3 ovarian): 86.1 µM; TGI (SK-OV-3 ovarian): > 100 µM; GI50 (HT29 colon): > 100 µM; TGI (HT29 colon): > 100 µM; GI50 (SK-MEL-2 melanoma): 66.7 µM; TGI (SK-MEL-2 melanoma): > 100 µM; GI50 (LOX IMVI melanoma): 43.6 µM; TGI (LOX IMVI melanoma): > 100 µM; GI50 (MCF7 breast): 21.9 µM; TGI (MCF7 breast): > 100 µM; GI50 (ACHN renal): > 100 µM; TGI (ACHN renal): > 100 µM; GI50 (OVCAR-4 ovarian): > 100 µM; TGI (OVCAR-4 ovarian): > 100 µM; GI50 (NCI-H322M lung): > 100 µM; TGI (NCI-H322M lung): > 100 µM; GI50 (A498 renal): 79.9 µM; TGI (A498 renal): > 100 µM; GI50 ([…]-0 renal): 49.7 µM; TGI (786-0 renal): > 100 µM; GI50 (MDA-MB-468 breast): 7.69 µM; TGI (MDA-MB-468 breast): > 100 µM; GI50 (OVCAR-8 ovarian): 26.7 µM; TGI (OVCAR-8 ovarian): > 100 µM; GI50 (SF-268 CNS): 43.1 µM; TGI (SF-268 CNS): > 100 µM; GI50 (COLO 205 colon): 40.8 µM; TGI (COLO 205 colon): > 100 µM; GI50 (UO-31 renal): 72 µM; TGI (UO-31 renal): > 100 µM; GI50 (NCI-H460 NSCLC): 31.7 µM; TGI (NCI-H460 NSCLC): > 100 µM; GI50 (IGROV1 ovarian): 53.5 µM; TGI (IGROV1 ovarian): > 100 µM; GI50 (SNB-75 CNS): 11.9 µM; TGI (SNB-75 CNS): > 100 µM; GI50 (PC-3 prostate): 62.9 µM; TGI (PC-3 prostate): > 100 µM; GI50 (HS 578T breast): 12.2 µM; TGI (HS 578T breast): 82.3 µM; GI50 (HL-60(TB) leukemia): 17.3 µM; TGI (HL-60(TB) leukemia): 37.9 µM; GI50 (K-562 leukemia): 3.25 µM; TGI (K-562 leukemia): > 100 µM; GI50 (NCI/ADR-RES ovarian): > 100 µM; TGI (NCI/ADR-RES ovarian): > 100 µM; GI50 (NCI-H522 lung): 18.1 µM; TGI (NCI-H522 lung): 92.3 µM; GI50 (CCRF-CEM leukemia): 7.64 µM; TGI (CCRF-CEM leukemia): 37.9 µM; GI50 (HOP-62 NSCLC): 18.1 µM; TGI (HOP-62 NSCLC): > 100 µM; GI50 (SR leukemia): 10.1 µM; TGI (SR leukemia): 41.5 µM; GI50 (SNB-19 CNS): > 100 µM; TGI (SNB-19 CNS): > 100 µM; GI50 (T-47D breast): 5.9 µM; TGI (T-47D breast): > 100 µM; GI50 (MDA-MB-435 melanoma): 62.1 µM; TGI (MDA-MB-435 melanoma): > 100 µM; GI50 (HCT-116 colon): 48.7 µM; TGI (HCT-116 colon): > 100 µM
